# Laboratory results: PubChem BioAssay AID1963850 (Molecular Pharmacology Branch, DTP, NCI, 2024)
# Test system: 192522-019-R-J2-PDC complex tumor spheroid viability
# Test: Anticancer human tumor 192522-019-R-J2-PDC patient-derived colon adenocarcinoma cell line growth inhibition [POLQ]
# Conditions: for IC50: curve of first compound; for viability, T/C: stronger effect = lower value
# Procedure: Multicellular complex tumor spheroid response to Polymerase (POL) inhibitors (novobiocin, ART-558, RP6685) in combination with a variety of drugs and investigational agents in selected tumor cell lines
# The POL inhibitors (novobiocin, ART-558, and RP6685) were evaluated both individually and in combination with standard of care and investigational anticancer small molecules within a complex spheroid model of solid tumors. . Complex spheroids include a stromal component modeled by human endothelial cells (HUVEC) and fibroblasts modeled by human mesenchymal stem cells (MSCs). The concentration ranges selected for each drug and investigational agent were based upon clinically achievable concentrations if the clinical Cmax of the agent was known.
# Compounds. The drugs and investigational agents: novobiocin (NSC847541), ART-558 (NSC835418), RP-6685 (NSC848927), peposertib (NSC802822), ceralasertib (NSC780249), elimusertib (NSC800525), camonsertib (NSC841442), AZD-1390 (NSC803789), olaparib (NSC753686), talazoparib (NSC767125), rucaparib (NSC756644), sotorasib (NSC818433), MRTX-1133 (NSC836407), SN-38 (NSC673596), topotecan (NSC609699), epotoside (NSC141540), doxorubicin (NSC123127), gemcitabine (NSC613327), 5-fluorouracil (NSC19893), paclitaxel (NSC125973), vemurafenib (NSC761431), MSA-2 (NSC828583), SN-011 (NSC837082), adavosertib (NSC754352), prexasertib (NSC758257), carboplatin (NSC241240) and oxaliplatin (NSC266046), were obtained from the National Cancer Institute (NCI) Developmental Therapeutics Program Chemical Repository (21). The FDA-approved anticancer drug set is available from the Developmental Therapeutics Program at https://dtp.cancer.gov/organization/dscb/obtaining/. […] The stock solutions were prepared in dimethyl sulfoxide (DMSO, Sigma-Aldrich, St. Louis, MO, cat. D2650), except for the platinum compounds which were prepared in saline (Quality Biological, Gaithersburg, MD, cat. 114-055-101), at 800-fold the tested concentration and stored at -70 degrees C prior to their use. All drugs and investigational agents were tested over a range starting from a high concentration at or near the clinical Cmax and decreasing in half-log increments. If the clinical Cmax for an agent had not been determined, the highest concentration tested was 10 microM, except for SN-38, which was tested at a high concentration of 1 microM.
# Cell Culture. All cells were maintained in an incubator at 37 degrees C and 5% CO2 with 95% humidity. The PDC lines were cultured according to standard operating procedures established by the NCI PDMR (https://pdmr.cancer.gov). Table 3 of the manuscript, lists the cell lines along with the number of the three cell types plated to form the mct-spheroids and media for tumor cell growth. After thawing, all PDC lines, except 997537-175-T-J1-PDC and 415267-285-R-J2-PDC, were cultured in Matrigel-coated flasks prepared with a working solution of 1X Ham's F-12 nutrient mix, without supplementation (Thermo Fisher Scientific, cat. 11765054), 100 U/mL penicillin-streptomycin (Thermo Fisher Scientific, cat. 15140122), and 2.5% Matrigel (Corning Inc., Corning, NY, cat. 354248) for the first three passages. The two PDC lines 997537-175-T-J1-PDC and 415267-285-R-J2-PDC were cultured on uncoated flasks. The 857933-349-R-J2-PDC line was cultured in 6C/Colon 1B media containing advanced DMEM/F-12 (Thermo Fisher Scientific, cat. 12634028), 10 mM HEPES (Thermo Fisher Scientific, cat. 15630080), 1X GlutaMAX supplement (Thermo Fisher Scientific, cat. 35050061), 0.1 mg/mL primocin (InvivoGen, San Diego, CA, cat. ant-pm-2), 10% defined fetal bovine serum, heat inactivated (HyClone Laboratories Inc., Logan, UT, cat. SH30070.03HI), 50% L-WRN conditioned media (ATCC, cat. CRL-3276), 1.25 mM N-Acetyl-L-cysteine (Sigma-Aldrich, cat. A9165), 10 mM nicotinamide (Sigma-Aldrich, cat. N0636), 1X B-27 supplement (Thermo Fisher Scientific, cat. 17504044), 1X N-2 supplement (Thermo Fisher Scientific, cat. […]
# [1] = second compound 0.0316 µM, first compound 0.0316 µM
# [2] = second compound 0.0316 µM, first compound 0.1 µM
# [3] = second compound 0.0316 µM, first compound 0.316 µM
# [4] = second compound 0.0316 µM, first compound 1 µM
# [5] = second compound 0.0316 µM, first compound 3.16 µM
# [6] = second compound 0.0316 µM, first compound 10 µM
# [7] = second compound 0.1 µM, first compound 0.0316 µM
# [8] = second compound 0.1 µM, first compound 0.1 µM
# [9] = second compound 0.1 µM, first compound 0.316 µM
# [10] = second compound 0.1 µM, first compound 1 µM
# [11] = second compound 0.1 µM, first compound 3.16 µM
# [12] = second compound 0.1 µM, first compound 10 µM
# [13] = second compound 0.316 µM, first compound 0.0316 µM
# [14] = second compound 0.316 µM, first compound 0.1 µM
# [15] = second compound 0.316 µM, first compound 0.316 µM
# [16] = second compound 0.316 µM, first compound 1 µM
# [17] = second compound 0.316 µM, first compound 3.16 µM
# [18] = second compound 0.316 µM, first compound 10 µM
# [19] = second compound 1 µM, first compound 0.0316 µM
# [20] = second compound 1 µM, first compound 0.1 µM
# [21] = second compound 1 µM, first compound 0.316 µM
# [22] = second compound 1 µM, first compound 1 µM
# [23] = second compound 1 µM, first compound 3.16 µM
# [24] = second compound 1 µM, first compound 10 µM
# [25] = second compound 3.16 µM, first compound 0.0316 µM
# [26] = second compound 3.16 µM, first compound 0.1 µM
# [27] = second compound 3.16 µM, first compound 0.316 µM
# [28] = second compound 3.16 µM, first compound 1 µM
# [29] = second compound 3.16 µM, first compound 3.16 µM
# [30] = second compound 3.16 µM, first compound 10 µM
# [31] = second compound 10 µM, first compound 0.0316 µM
# [32] = second compound 10 µM, first compound 0.1 µM
# [33] = second compound 10 µM, first compound 0.316 µM
# [34] = second compound 10 µM, first compound 1 µM
# [35] = second compound 10 µM, first compound 3.16 µM
# [36] = second compound 10 µM, first compound 10 µM
# 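Further: spheroids exposed to drugs for seven days before reading.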
# 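Wherever viability, T/C is given: 100% = DMSO vehicle control viability in luminescence.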
smiles,measurement,setting,value
CCCS(=O)(=O)Nc1ccc(F)c(C(=O)c2c[nH]c3ncc(-c4ccc(Cl)cc4)cc23)c1F + Nc1ccc(C#CCN(C(=O)Cc2ncc(C(F)(F)F)cc2C(F)(F)F)c2ccc(F)cc2)nn1,IC50,second compound 0.0316 µM,> 10 µM
same,IC50,second compound 0.1 µM,> 10 µM
same,IC50,second compound 0.316 µM,> 10 µM
same,IC50,second compound 1 µM,> 10 µM
same,IC50,second compound 3.16 µM,> 10 µM
same,IC50,second compound 10 µM,> 10 µM
same,"viability, T/C",[1],109%
same,"viability, T/C",[2],95.2%
same,"viability, T/C",[3],109%
same,"viability, T/C",[4],98.3%
same,"viability, T/C",[5],121%
same,"viability, T/C",[6],66.9%
same,"viability, T/C",[7],106%
same,"viability, T/C",[8],107%
same,"viability, T/C",[9],104%
same,"viability, T/C",[10],99.9%
same,"viability, T/C",[11],101%
same,"viability, T/C",[12],67.9%
same,"viability, T/C",[13],102%
same,"viability, T/C",[14],98.7%
same,"viability, T/C",[15],99.4%
same,"viability, T/C",[16],102%
same,"viability, T/C",[17],101%
same,"viability, T/C",[18],83.6%
same,"viability, T/C",[19],98%
same,"viability, T/C",[20],107%
same,"viability, T/C",[21],97.9%
same,"viability, T/C",[22],110%
same,"viability, T/C",[23],125%
same,"viability, T/C",[24],94.1%
same,"viability, T/C",[25],101%
same,"viability, T/C",[26],102%
same,"viability, T/C",[27],98.4%
same,"viability, T/C",[28],99.9%
same,"viability, T/C",[29],113%
same,"viability, T/C",[30],86.6%
same,"viability, T/C",[31],105%
same,"viability, T/C",[32],106%
same,"viability, T/C",[33],99.6%
same,"viability, T/C",[34],110%
same,"viability, T/C",[35],118%
same,"viability, T/C",[36],78.1%
COc1ccc([C@@H](O)c2cc(-c3ncnc4cc(N5CCOCC5)ccc34)c(F)cc2Cl)nn1 + Nc1ccc(C#CCN(C(=O)Cc2ncc(C(F)(F)F)cc2C(F)(F)F)c2ccc(F)cc2)nn1,IC50,second compound 0.0316 µM,> 10 µM
same,IC50,second compound 0.1 µM,> 10 µM
same,IC50,second compound 0.316 µM,> 10 µM
same,IC50,second compound 1 µM,> 10 µM
same,IC50,second compound 3.16 µM,> 10 µM
same,IC50,second compound 10 µM,> 10 µM
same,"viability, T/C",[1],116%
same,"viability, T/C",[2],97.3%
same,"viability, T/C",[3],93.7%
same,"viability, T/C",[4],85.8%
same,"viability, T/C",[5],75.8%
same,"viability, T/C",[6],55.4%
same,"viability, T/C",[7],106%
same,"viability, T/C",[8],97.4%
same,"viability, T/C",[9],98.7%
same,"viability, T/C",[10],90.1%
same,"viability, T/C",[11],86.2%
same,"viability, T/C",[12],65.5%
same,"viability, T/C",[13],100%
same,"viability, T/C",[14],101%
same,"viability, T/C",[15],102%
same,"viability, T/C",[16],102%
same,"viability, T/C",[17],75.3%
same,"viability, T/C",[18],59.9%
same,"viability, T/C",[19],102%
same,"viability, T/C",[20],104%
same,"viability, T/C",[21],98.1%
same,"viability, T/C",[22],90.8%
same,"viability, T/C",[23],93.2%
same,"viability, T/C",[24],75%
same,"viability, T/C",[25],107%
same,"viability, T/C",[26],101%
same,"viability, T/C",[27],99%
same,"viability, T/C",[28],93.6%
same,"viability, T/C",[29],84.1%
same,"viability, T/C",[30],65.9%
same,"viability, T/C",[31],104%
same,"viability, T/C",[32],111%
same,"viability, T/C",[33],102%
same,"viability, T/C",[34],102%
same,"viability, T/C",[35],82%
same,"viability, T/C",[36],73.2%
